The test system of the experiment is ΔG/SEAP/HCV E1E2. Description: Effect of test substance on cell infection with HCV pseudotype virus (SEAP reporter assay in HepG2 cells). It is filed as cell-based. Conditions: Hepatitis C virus.

`O=c1c2c(c(-c3ccc(Cl)cc3)nn1-c1cc(N3CC[C@H](O)C3)ccc1C(F)(F)F)CCC2` [Example 78, 4-(4-chloro-phenyl)-2-[5-((S)-3-hydroxy-pyrrolidin-1-yl)-2-trifluoromethyl-phenyl]-2,5,6,7-tetrahydro-cyclopenta[d]pyridazin-1-one] registered an IC50 below 100 nM.

In turn, `COc1cc(OC)cc(-c2nn(-c3cc(NCCc4ccccc4)ccc3C(F)(F)F)c(=O)c3c2CCC3)c1` [Example 136, 4-(3,5-dimethoxy-phenyl)-2-(5-phenethylamino-2-trifluoromethyl-phenyl)-2,5,6,7-tetrahydro-cyclopenta[d]pyridazin-1-one] showed an IC50 below 100 nM.

Turning to `COc1cc(OC)cc(-c2nn(-c3cc(N4CCC(O)C4)ccc3C(F)(F)F)c(=O)c3c2CCN3)c1` (stereo not shown) [Example 18, 4-(3,5-dimethoxyphenyl)-6-[5-(3-hydroxy-pyrrolidin-1-yl)-2-trifluoromethyl-phenyl]-1,2,3,6-tetrahydro-pyrrolo[2,3-d]pyridazin-7-one], the IC50 was below 100 nM.

The compound `COc1cc(OC)cc(-c2nn(-c3cc(Cl)ccc3C(F)(F)F)c(=O)c3c2CCN3)c1` [Example 51, 6-(5-chloro-2-trifluoromethyl-phenyl)-4-(3,5-dimethoxy-phenyl)-1,2,3,6-tetrahydro-pyrrolo[2,3-d]pyridazin-7-one] registered an IC50 of 100 to 10000 nM.

`Cc1cccc(-c2nn(-c3cc(N4CC[C@H](O)C4)ccc3C(F)(F)F)c(=O)c3c2CCC3)c1` [Example 64, 2-[5-((S)-3-hydroxy-pyrrolidin-1-yl)-2-trifluoromethyl-phenyl]-4-m-tolyl-2,5,6,7-tetrahydro-cyclopenta[d]pyridazin-1-one] displayed a concentration for half-maximal inhibition (IC50) below 100 nM.

`COc1cc(OC)cc(-c2nn(-c3cc(NCC(=O)N(C)C)ccc3C(F)(F)F)c(=O)c3c2CCC3)c1` [Example 125, 2-{3-[4-(3,5-dimethoxy-phenyl)-1-oxo-1,5,6,7-tetrahydro-cyclopenta[d]pyridazin-2-yl]-4-trifluoromethyl-phenylamino}-N,N-dimethyl-acetamide] displayed an IC50 below 100 nM.

As to `COc1cc(C)cc(-c2nn(-c3cc(N4CC[C@@H](O)C4)ccc3C(F)(F)F)c(=O)c3c2CCC3)c1` [Example 23, 2-[5-((R)-3-hydroxy-pyrrolidin-1-yl)-2-trifluoromethyl-phenyl]-4-(3-methoxy-5-methyl-phenyl)-2,5,6,7-tetrahydro-cyclopenta[d]pyridazin-1-one], the IC50 is below 100 nM.

`COc1ccccc1-c1nn(-c2cc(N3CC[C@H](O)C3)ccc2C(F)(F)F)c(=O)c2c1CCC2` [Example 109, 2-[5-((S)-3-hydroxy-pyrrolidin-1-yl)-2-trifluoromethyl-phenyl]-4-(2-methoxy-phenyl)-2,5,6,7-tetrahydro-cyclopenta[d]pyridazin-1-one] showed a 50% inhibitory concentration (IC50) of 100 to 10000 nM.

Compound `CCCNc1ccc(C(F)(F)F)c(-n2nc(-c3cc(OC)cc(OC)c3)c3c(c2=O)CCC3)c1` [Example 100, 4-(3,5-dimethoxy-phenyl)-2-(5-propylamino-2-trifluoromethyl-phenyl)-2,5,6,7-tetrahydro-cyclopenta[d]pyridazin-1-one] displayed a concentration for half-maximal inhibition (IC50) below 100 nM.

Take `Cc1cc(C)cc(-c2nn(-c3cc(N4CC[C@H](O)C4)ccc3C(F)(F)F)c(=O)c3c2CCN3)c1` [Example 11, 4-(3,5-dimethyl-phenyl)-6-[5-((S)-3-hydroxy-pyrrolidin-1-yl)-2-trifluoromethyl-phenyl]-1,2,3,6-tetrahydro-pyrrolo[2,3-d]pyridazin-7-one]: the IC50 was below 100 nM.

On to `O=c1c2c(c(-c3ccccc3O)nn1-c1cc(N3CC[C@H](O)C3)ccc1C(F)(F)F)CCC2` [Example 111, 4-(2-hydroxy-phenyl)-2-[5-((S)-3-hydroxy-pyrrolidin-1-yl)-2-trifluoromethyl-phenyl]-2,5,6,7-tetrahydro-cyclopenta[d]pyridazin-1-one], for which the IC50 lay within 100 to 10000 nM.

The compound `COc1cc(-c2nn(-c3cc(N4CC[C@H](O)C4)ccc3C(F)(F)F)c(=O)c3c2CCC3)ccn1` [Example 93, 2-[5-((S)-3-hydroxy-pyrrolidin-1-yl)-2-trifluoromethyl-phenyl]-4-(2-methoxy-pyridin-4-yl)-2,5,6,7-tetrahydro-cyclopenta[d]pyridazin-1-one] came in with a half-maximal inhibitory concentration (IC50) of 100 to 10000 nM.

For `O=c1c2c(c(-c3ccccc3Br)nn1-c1cc(N3CC[C@H](O)C3)ccc1C(F)(F)F)CCC2` [Example 104, 4-(2-bromo-phenyl)-2-[5-((S)-3-hydroxy-pyrrolidin-1-yl)-2-trifluoromethyl-phenyl]-2,5,6,7-tetrahydro-cyclopenta[d]pyridazin-1-one], the IC50 is 100 to 10000 nM.

Consider `COc1cc(OC)cc(-c2nn(-c3cc(NCC4CC4)ccc3C(F)(F)F)c(=O)c3c2CCC3)c1` [Example 141, 2-[5-(cyclopropylmethyl-amino)-2-trifluoromethylphenyl]-4-(3,5-dimethoxy-phenyl)-2,5,6,7-tetrahydro-cyclopenta[d]pyridazin-1-one], for which the concentration for half-maximal inhibition (IC50) is below 100 nM.

As to `COc1cc(C)cc(-c2nn(-c3cc(-c4cccnn4)ccc3C(F)(F)F)c(=O)c3c2CC(C)N3)c1` (stereo not shown) [Example 15, 4-(3-methoxy-5-methyl-phenyl)-2-methyl-6-(5-pyridazin-3-yl-2-trifluoromethyl-phenyl)-1,2,3,6-tetrahydro-pyrrolo[2,3-d]pyridazin-7-one], the half-maximal inhibitory concentration (IC50) was below 100 nM.

On to `Cc1cc(C)cc(-c2nn(-c3cc(-c4cccnn4)ccc3C(F)(F)F)c(=O)c3c2CCN3)c1` [Example 10, 4-(3,5-dimethyl-phenyl)-6-(5-pyridazin-3-yl-2-trifluoromethyl-phenyl)-1,2,3,6-tetrahydro-pyrrolo[2,3-d]pyridazin-7-one], for which the IC50 is below 100 nM.

For `COc1cc(OC)cc(-c2nn(-c3cc(N4CC[C@H](O)C4)ccc3C(F)(F)F)c(=O)c3c2CCN3C(=O)OC(C)C)c1` [Example 155, 4-(3,5-dimethoxy-phenyl)-6-[5-((S)-3-hydroxy-pyrrolidin-1-yl)-2-trifluoromethyl-phenyl]-7-oxo-2,3,6,7-tetrahydro-pyrrolo[2,3-d]pyridazine-1-carboxylic acid isopropyl ester], the concentration for half-maximal inhibition (IC50) is below 100 nM.

Consider `Cc1cc(-c2cnco2)cc(-c2nn(-c3cc(-c4cccnn4)ccc3C(F)(F)F)c(=O)c3c2CC(C)N3)c1` (stereo not shown) [Example 5, 2-methyl-4-(3-methyl-5-oxazol-5-yl-phenyl)-6-(5-pyridazin-3-yl-2-trifluoromethyl-phenyl)-1,2,3,6-tetrahydro-pyrrolo[2,3-d]pyridazin-7-one], for which the IC50 was below 100 nM.

In the case of `COc1cc(OC)cc(-c2nn(-c3cc(N4CCCC4=O)ccc3C(F)(F)F)c(=O)c3c2CCC3)c1` [Example 150, 4-(3,5-dimethoxy-phenyl)-2-[5-(2-oxo-pyrrolidin-1-yl)-2-trifluoromethyl-phenyl]-2,5,6,7-tetrahydro-cyclopenta[d]pyridazin-1-one], the IC50 was below 100 nM.

With `COc1cc(OC)cc(-c2nn(-c3cc(CCCO)ccc3C(F)(F)F)c(=O)c3c2CCC3)c1` [Example 121, 4-(3,5-dimethoxy-phenyl)-2-[5-(3-hydroxy-propyl)-2-trifluoromethyl-phenyl]-2,5,6,7-tetrahydro-cyclopenta[d]pyridazin-1-one], the IC50 is below 100 nM.

Compound `O=c1c2c(c(-c3ccc(Br)cc3)nn1-c1cc(N3CC[C@H](O)C3)ccc1C(F)(F)F)CCC2` [Example 90, 4-(4-bromo-phenyl)-2-[5-((S)-3-hydroxy-pyrrolidin-1-yl)-2-trifluoromethyl-phenyl]-2,5,6,7-tetrahydro-cyclopenta[d]pyridazin-1-one] yielded an IC50 below 100 nM.

In turn, `CC(C)Cc1nn(-c2cc(N3CC[C@H](O)C3)ccc2C(F)(F)F)c(=O)c2c1CCC2` [Example 144, 2-[5-((S)-3-hydroxy-pyrrolidin-1-yl)-2-trifluoromethyl-phenyl]-4-isobutyl-2,5,6,7-tetrahydro-cyclopenta[d]pyridazin-1-one] registered an IC50 of 100 to 10000 nM.

Turning to `COc1cc(OC)cc(-c2nn(-c3cc(N4CC[C@H](O)C4)ccc3C(F)(F)F)c(=O)c3c2CCC3)c1` [Example 9, 4-(3,5-dimethoxy-phenyl)-2-[5-((S)-3-hydroxy-pyrrolidin-1-yl)-2-trifluoromethyl-phenyl]-2,5,6,7-tetrahydro-cyclopenta[d]pyridazin-1-one], the half-inhibitory concentration (IC50) was below 100 nM.

For `CCNc1ccc(C(F)(F)F)c(-n2nc(-c3cc(OC)cc(OC)c3)c3c(c2=O)CCC3)c1` [Example 67, 4-(3,5-dimethoxy-phenyl)-2-(5-ethylamino-2-trifluoromethyl-phenyl)-2,5,6,7-tetrahydro-cyclopenta[d]pyridazin-1-one], the IC50 was below 100 nM.

With `COc1cc(C)cc(-c2nn(-c3cc(N4CC[C@H](O)C4)ccc3C(F)(F)F)c(=O)c3c2CC(C)N3)c1` (stereo partly drawn) [Example 16, 6-[5-((S)-3-hydroxy-pyrrolidin-1-yl)-2-trifluoromethyl-phenyl]-4-(3-methoxy-5-methyl-phenyl)-2-methyl-1,2,3,6-tetrahydro-pyrrolo[2,3-d]pyridazin-7-one], the IC50 is below 100 nM.

For `COc1cccc(-c2nn(-c3cc(N4CC[C@H](O)C4)ccc3C(F)(F)F)c(=O)c3c2CCC3)c1` [Example 58, 2-[5-((S)-3-hydroxy-pyrrolidin-1-yl)-2-trifluoromethyl-phenyl]-4-(3-methoxy-phenyl)-2,5,6,7-tetrahydro-cyclopenta[d]pyridazin-1-one], the half-maximal inhibitory concentration (IC50) was below 100 nM.

Turning to `COc1cc(OC)cc(-c2nn(-c3cc(N4CC[C@@H](O)C4)ccc3C(F)(F)F)c(=O)c3c2CCN3)c1` [Example 24, 4-(3,5-dimethoxy-phenyl)-6-[5-((R)-3-hydroxy-pyrrolidin-1-yl)-2-trifluoromethyl-phenyl]-1,2,3,6-tetrahydro-pyrrolo[2,3-d]pyridazin-7-one], the half-inhibitory concentration (IC50) was below 100 nM.

The compound `COC(=O)CN1CCc2c(-c3cc(OC)cc(OC)c3)nn(-c3cc(N4CC[C@H](O)C4)ccc3C(F)(F)F)c(=O)c21` [Example 26, {4-(3,5-dimethoxy-phenyl)-6-[5-((S)-3-hydroxy-pyrrolidin-1-yl)-2-trifluoromethyl-phenyl]-7-oxo-2,3,6,7-tetrahydro-pyrrolo[2,3-d]pyridazin-1-yl}-acetic acid methyl ester] gave a 50% inhibitory concentration (IC50) below 100 nM.

The values are drawn from patent EP1953147A1, “HETEROCYCLIC COMPOUND AND MEDICINAL APPLICATION THEREOF” (priority 2005, dated 2007).
